Data from patent US6989435B2, “Compounds and methods to inhibit or augment an inflammatory response” (Cambridge University Technical Services Ltd., priority 1997, dated 2006).

Test system: TGFβ1 induced human monocyte migration
Assay: Human monocyte migration, TGFβ1 induced
Assay type: cell-based
Procedure: Agents may also be screened in a chemotactic assay which employs human neutrophils, eosinophils, mast cells, basophils, platelets, lymphocytes or monocytes. For monocytes, 9 mls of fresh blood are transferred to a tube containing 1 ml of 3.8% sodium citrate, and left at room temperature for 15 minutes. Five mls of this anti-coagulated blood are carefully layered over 3.5 ml Polymorphprep® (Nycomed Pharma, Oslo), and centrifuged at 500 g for 35 minutes per the manufacturer's instructions. The top band at the sample/medium interface contains monocytes. The monocytes are carefully removed with a glass pipette, and reconstituted to the original volume (5 ml). The cells are washed with PBS plus 10% fetal calf serum, and centrifuged at 400 g for 10 minutes. The washing step is repeated three times before the cells are counted. Cells are resuspended at 1×10^7 cells/ml in RPMI-1640+10% fetal calf serum (FCS). The monocytes are cultured for two days at 37° C. in a humidified atmosphere of 5% CO2.
On day 2, the cells are counted, spun down, and reconstituted to 1×10^7 cells/ml in Gey's balanced salt solution+1 mg/ml bovine serum albumin (BSA). […]

EICADPKQKWVQ [Peptide 3]
effect on TGF-beta induced monocyte migration (100 μM): did not affect
Extent of inhibition of human monocyte migration at 100 μM, TGFβ1 (Table 4(c), 100 μM peptide, n.s. = no statistically significant inhibition): n.s.
